Measurements: BindingDB's records for doi:10.1016/j.ejmech.2019.01.044 (Institute of Agricultural and Food Biotechnology, 2019)
pIC50: −log10 of the molar value.

What follows are molecules tested against T1, Proteasome subunit beta type-5 (Rattus norvegicus, UniProt P28075) (assay: Inhibition of chymotrypsin-like activity of rat liver 26 proteasome assessed as decrease in fluorescence using succinyl-Leu-Leu-Val-Tyr-4-methylcoumaryl-7-amide as substrate preincubated for 30 mins followed by addition of substrate and measured after 1 hr by fluorescence based method).
T1 sequence (P28075 whole entry): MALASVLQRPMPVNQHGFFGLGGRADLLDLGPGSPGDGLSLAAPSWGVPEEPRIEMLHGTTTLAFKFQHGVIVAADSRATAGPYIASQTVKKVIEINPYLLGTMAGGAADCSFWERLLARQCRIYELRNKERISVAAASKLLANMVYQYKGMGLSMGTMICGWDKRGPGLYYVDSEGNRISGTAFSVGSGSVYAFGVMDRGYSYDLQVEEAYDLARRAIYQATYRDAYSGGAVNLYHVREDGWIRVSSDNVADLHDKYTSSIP

Q: `C=CC(/C=C\c1ccc(O)cc1)c1ccc(O)cc1` (centres undefined) was tested. Which pIC50 did it give?
A: 7.15

Q: `COc1cc(O)c(C(=O)c2ccc(O)cc2)c(O)c1` was tested. Which pIC50 did it give?
A: < 6.02

Q: How did the pIC50 turn out when `Oc1ccc(CC2COc3cc(O)ccc3C2)cc1` (centres undefined) was run?
A: 6.63

Q: `COc1cc(O)ccc1CCCc1ccc(O)cc1` [BROUSSONIN B] was tested. Which pIC50 did it give?
A: 6.75
